Tests used:
[1] = biological target: T1, Menin/MLL (menin, FITC-MBM1 peptide) (Homo sapiens, UniProt O00255, T541A); test: Menin/MLL fluorescence polarization (FP) assay; type: binding; details: averaged values over all measurements; read-out: Menin FP assay (IC50)
T1 construct: 6xHis (C)
T1 sequence (O00255 with tags, fused parts or gaps T541A): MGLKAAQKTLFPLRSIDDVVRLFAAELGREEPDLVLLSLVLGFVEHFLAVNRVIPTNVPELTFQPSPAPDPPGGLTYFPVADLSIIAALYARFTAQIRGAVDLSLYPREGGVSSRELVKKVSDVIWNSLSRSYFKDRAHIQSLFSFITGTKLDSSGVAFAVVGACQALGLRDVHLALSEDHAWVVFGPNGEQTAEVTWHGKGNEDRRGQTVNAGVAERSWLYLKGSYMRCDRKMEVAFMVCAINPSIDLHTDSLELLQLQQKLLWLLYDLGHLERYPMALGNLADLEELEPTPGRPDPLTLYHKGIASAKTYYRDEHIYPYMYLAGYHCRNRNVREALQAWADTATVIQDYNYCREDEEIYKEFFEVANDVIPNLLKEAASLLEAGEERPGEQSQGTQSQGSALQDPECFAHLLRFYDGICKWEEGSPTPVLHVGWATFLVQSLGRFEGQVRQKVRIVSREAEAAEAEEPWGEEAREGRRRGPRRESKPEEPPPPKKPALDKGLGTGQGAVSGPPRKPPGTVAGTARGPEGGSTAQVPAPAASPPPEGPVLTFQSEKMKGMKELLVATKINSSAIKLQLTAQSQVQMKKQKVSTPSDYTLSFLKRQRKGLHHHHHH
Method: Pharmacological Part 1) Menin/MLL Fluorescence Polarization Assay
To a non-surface binding, black 384-well microtiter plate was added 50 nL 160× test compound in DMSO and 4 μL 2× menin in assay buffer (40 mM Tris-HCl, pH 7.5, 50 mM NaCl, 1 mM DTT and 0.001% Tween 20). After incubation of test compound and menin for 10 min at ambient temperature, 4 μL 2×FITC-MBM1 peptide (FITC-β-alanine-SARWRFPARPGT-NH2) in assay buffer was added, the microtiter plate centrifuged at 1000 rpm for 1 min and the assay mixtures incubated for 15 min at ambient temperature. The relative amount of menin: FITC-MBM1 complex present in an assay mixture is determined by measuring the fluorescence polarization (FP) of the FITC label with a BMG Pherastar plate reader (ex. 485 nm/em. 520 nm) at ambient temperature. The final concentrations of reagents in the binding assay are 100 nM menin, 5 nM FITC-MBM1 peptide and 0.625% DMSO in assay buffer. Dose-response titrations of test compounds are conducted using an 11 point, three-fold serial dilution scheme, starting at 31 μM.
Compound potencies were determined by first calculating % inhibition at each compound concentration according to equation 1: % inhibition=((HC−LC)−(FP^compound−LC))/(HC−LC))*100 (Eqn 1)
Where LC and HC are the FP values of the assay in the presence or absence of a saturating concentration of a compound that competes with FITC-MBM1 for binding to menin, and FP^compound is the measured FP value in the presence of the test compound. HC and LC FP values represent an average of at least 16 replicates per plate.
Where Bottom and Top are the lower and upper asymptotes of the dose-response curve, respectively, IC50 is the concentration of compound that yields 50% inhibition of signal and h is the Hill coefficient.

[2] = biological target: T2, Menin/MLL (terbium chelate-labeled menin, FITC-MBM1 peptide) (Homo sapiens, UniProt O00255, T541A); test: Menin/MLL homogenous time-resolved fluorescence (HTRF) assay; type: binding; details: averaged values over all measurements; read-out: Menin HTRF assay (IC50)
T2 construct: Menin (a.a. 1-610-6×his tag) was labeled with terbium cryptate as follows
T2 sequence (O00255 with tags, fused parts or gaps T541A): T1 sequence (O00255 with tags, fused parts or gaps T541A)
How it was run: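 Compound preincubated 5 min with terbium-cryptate-labeled menin (aa 1-610, His-tagged; 100 pM final), then 75 nM FITC-MBM1 peptide added, 15 min at ambient temperature; 0.5% DMSO, Tris pH 7.5 buffer. HTRF ratio 520/490 nm; % inhibition vs saturating competitor, IC50 from 11-point three-fold titration from 31 μM.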

[3] = tested on: MV-4-11; test: Proliferation assay (spheroid assay) MV-4-11; type: cell-based, human; details: Homo sapiens, MV4-11, MV-4-11; averaged values over all measurements; read-out: Spheroid assay MV-4-11 (IC50)
How it was run: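 Cells were grown as spheroids in ultra-low attachment round-bottom wells with compound (0.3% DMSO) for 8 d at 37 °C, imaged every 4 h, with confluence as spheroid size. AUC of confluence versus time (t=0 baseline) was expressed as % of DMSO control, and absolute IC50 came from a least-squares nonlinear fit.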

[4] = tested on: MOLM14; test: Proliferation assay (spheroid assay) MOLM14; type: cell-based, human; details: Homo sapiens, MOLM-14, MOLM14; averaged values over all measurements; read-out: Spheroid assay MOLM14 (IC50)
Method: (§1) The anti-proliferative effect of menin/MLL protein/protein interaction inhibitor test compounds was assessed in human leukemia cell lines. The cell lines MV-4-11 and MOLM14 harbor MLL translocations and express the MLL fusion proteins MLL-AF4 and MLL-AF9, respectively, as well as the wildtype protein from the second allele. […] K562 and KG1 were used as a control cell lines containing two MLL wildtype alleles in order to exclude compounds that display general cytotoxic effects.
(§2) MV-4-11 and MOLM14 were cultured in RPMI-1640 (Sigma Aldrich) supplemented with 10% fetal bovine serum (HyClone), 2 mM L-glutamine (Sigma Aldrich) and 50 μg/ml gentamycin (Gibco). K562 were propagated in RPMI-1640 (Sigma Aldrich) supplemented with 20% fetal bovine serum (HyClone), 2 mM L-glutamine (Sigma Aldrich) and 50 μg/ml gentamycin (Gibco). KG1 were cultured in Iscove's MDM (Gibco) supplemented with 20% fetal bovine serum (HyClone), 2 mM L-glutamine (Sigma Aldrich) and 50 μg/ml gentamycin (Gibco).
(§3) In order to assess the anti-proliferative effects, 1,500 MV-4-11, 300 MOLM14, 750 K562 or 1,300 KG1 cells were seeded in 200 μl media per well in 96-well round bottom, ultra-low attachment plates (Costar, catalogue number 7007). Cell seeding numbers were chosen based on growth curves to ensure linear growth throughout the experiment. Test compounds were added at different concentrations and the DMSO content was normalized to 0.3%. Cells were incubated for 8 d at 37° C. and 5% CO2. Spheroid like growth was monitored in real-time by live-cell imaging (IncuCyteZOOM, Essenbio, 4× objective) acquiring one image every four hours for 8 d. Confluence (%) as a measure of spheroid size was determined using an integrated analysis tool.
(§4) In order to determine the cumulative effect of the test compounds over time, the area under the curve (AUC) in a plot of confluence against time was calculated. Confluence at the beginning of the experiment (t=0) was used as baseline for the AUC calculation.
(§5) Absolute IC50 values were calculated according to the following procedure: % Control=(AUC sample/AUC control)*100
(§6) AUC control=mean AUC of control values (cells without compound/DMSO as vehicle control)
(§7) A non-linear curve fit was applied using the least squares (ordinary) fit method to the plot of % control versus compound concentration. Based on this, the absolute IC50 value (half maximal inhibitory concentration of the test compound causing an anti-proliferative effect of 50% relative to the vehicle control) was calculated.

[5] = tested on: KG1; test: Proliferation assay (spheroid assay) KG1 control cell line; type: cell-based; details: Homo sapiens, KG-1, averaged values over all measurements
Method: as §1, §2, §3, §4, §5, §6, §7

IC50 [1]	IC50 [2]	IC50 [3]	IC50 [4]	SMILES	IC50 [5]
230 nM	69 nM	8300 nM	12800 nM	FC(F)(F)Cc1cc2c(N3CC[C@H]4[C@H](CCN4Cc4ccccc4)C3)ncnc2s1 (single isomer, unassigned) [Compound 4]	–
98 nM	106 nM	3500 nM	10300 nM	Cn1cc(CN2CC[C@H]3CN(c4ncnc5sc(CC(F)(F)F)cc45)CC[C@H]32)cn1 (single isomer, unassigned) [Compound 9]	–
250 nM	118 nM	4400 nM	2000 nM	FC(F)(F)Cc1cc2c(N3CC[C@@H]4[C@@H](CCN4Cc4ccc(Cl)nc4)C3)ncnc2s1 (single isomer, unassigned) [Compound 10]	–
590 nM	680 nM	> 15000 nM	> 15000 nM	FC(F)(F)Cc1cc2c(N3CC[C@H]4[C@H](CCN4Cc4ccc(Cl)nc4)C3)ncnc2s1 (single isomer, unassigned) [Compound 11]	–
430 nM	860 nM	2100 nM	9200 nM	Cc1nc(CN2CC[C@H]3CN(c4ncnc5sc(CC(F)(F)F)cc45)CC[C@H]32)cs1 (single isomer, unassigned) [Compound 12]	–
–	41 nM	480 nM	1300 nM	Fc1ccc(CN2CC[C@@H]3CN(c4ncnc5sc(CC(F)(F)F)cc45)C[C@@H]3C2)cn1 (single isomer, unassigned) [Compound 37]	> 15000 nM
–	165 nM	670 nM	–	Cc1cncc(CN2CC[C@@H]3CN(c4ncnc5sc(CC(F)(F)F)cc45)C[C@@H]3C2)c1 (single isomer, unassigned) [Compound 39]	2500 nM
–	25 nM	260 nM	1600 nM	Cc1ccc(CN2CC[C@@H]3CN(c4ncnc5sc(CC(F)(F)F)cc45)C[C@@H]3C2)cn1 (single isomer, unassigned) [Compound 40]	8100 nM
–	74 nM	840 nM	1200 nM	FC(F)(F)Cc1cc2c(N3C[C@H]4CCN(Cc5cccnc5Cl)C[C@H]4C3)ncnc2s1 (single isomer, unassigned) [Compound 41]	4500 nM
–	21 nM	470 nM	1600 nM	FC(F)(F)Cc1cc2c(N3C[C@H]4CCN(Cc5ccc(Cl)nc5)C[C@H]4C3)ncnc2s1 (single isomer, unassigned) [Compound 42]	> 15000 nM
–	87 nM	2100 nM	–	COc1ncccc1CN1CC[C@@H]2CN(c3ncnc4sc(CC(F)(F)F)cc34)C[C@@H]2C1 (single isomer, unassigned) [Compound 44]	> 15000 nM
–	16 nM	280 nM	1800 nM	COc1ccc(CN2CC[C@@H]3CN(c4ncnc5sc(CC(F)(F)F)cc45)C[C@@H]3C2)cn1 (single isomer, unassigned) [Compound 45]	> 15000 nM
–	67 nM	590 nM	2100 nM	CCCN1CC[C@@H]2CN(c3ncnc4sc(CC(F)(F)F)cc34)C[C@@H]2C1 (single isomer, unassigned) [Compound 57]	> 15000 nM
–	63 nM	990 nM	–	CC(C)(CO)CN1CC[C@@H]2CN(c3ncnc4sc(CC(F)(F)F)cc34)C[C@@H]2C1 (single isomer, unassigned) [Compound 58]	> 15000 nM
–	95 nM	660 nM	220 nM	Cc1ncccc1CN1CC[C@@H]2CN(c3ncnc4sc(CC(F)(F)F)cc34)C[C@@H]2C1 (single isomer, unassigned) [Compound 60]	1800 nM
–	61 nM	650 nM	800 nM	COc1cc(CN2CC[C@@H]3CN(c4ncnc5sc(CC(F)(F)F)cc45)C[C@@H]3C2)ccn1 (single isomer, unassigned) [Compound 63]	9500 nM
–	33 nM	240 nM	–	FC(F)(F)Cc1cc2c(N3C[C@H]4CCN(CC5CCCOC5)C[C@H]4C3)ncnc2s1 (single isomer, unassigned) [Compound 99]	> 15000 nM
–	57 nM	930 nM	–	FC(F)(F)Cc1cc2c(N3C[C@H]4CCN(CC5CCCCO5)C[C@H]4C3)ncnc2s1 (single isomer, unassigned) [Compound 100]	> 15000 nM
–	28 nM	410 nM	–	FC(F)(F)Cc1cc2c(N3C[C@H]4CCN(CC5CCOC5)C[C@H]4C3)ncnc2s1 (single isomer, unassigned) [Compound 101]	> 15000 nM
520 nM	1130 nM	> 15000 nM	> 15000 nM	Cn1cc(CN2CC3CN(c4ncnc5sc(CC(F)(F)F)cc45)CC3C2)cn1 (stereo not shown) [Compound 18]	–
88 nM	70 nM	840 nM	6700 nM	Cn1cc(CN2CCC3CN(c4ncnc5sc(CC(F)(F)F)cc45)CC3C2)cn1 (stereo not shown) [Compound 71]	–

SMILES	IC50 [1]	IC50 [2]	IC50 [3]	IC50 [4]	IC50 [5]
OCCn1cccc1CN1CCC2CN(c3ncnc4sc(CC(F)(F)F)cc34)CCC21 (stereo not shown) [Compound 23]	220 nM	366 nM	1700 nM	4300 nM	–
